Data taken from patent publication US9809587B2, “Pesticidally active heterocyclic derivatives with sulphur containing substituents” (Syngenta Participations AG, priority 2014, dated 2017).

Columns and labels:
Type in all cases: in vivo
[1] = system: Spodoptera littoralis (Egyqptian Cotton Leaf Worm); test: Spodoptera littoralis (Egyptian cotton leaf worm), sprayed cotton leaf discs; conditions: foliar, 72 h, application rate of 200 ppm, L1 larvae on cotton leaf discs, 3 days after infestation
Protocol: Example B7: Spodoptera littoralis (Egyqptian Cotton Leaf Worm)
Cotton leaf discs were placed on agar in 24-well microtiter plates and sprayed with aqueous test solutions prepared from 10′000 ppm DMSO stock solutions. After drying the leaf discs were infested with five L1 larvae. The samples were assessed for mortality, anti-feedant effect, and growth inhibition in comparison to untreated samples 3 days after infestation. Control of Spodoptera littoralis by a test sample is when at least one of mortality, anti-feedant effect, and growth inhibition is higher than the untreated sample.

[2] = system: Diabrotica balteata (Corn Root Worm); test: Diabrotica balteata (corn root worm), sprayed maize sprouts; conditions: 96 h, application rate of 200 ppm, L2 larvae on maize sprouts, 4 days after infestation
Protocol: Example B2: Diabrotica balteata (Corn Root Worm)
Maize sprouts, placed on an agar layer in 24-well microtiter plates were treated with aqueous test solutions prepared from 10′000 ppm DMSO stock solutions by spraying. After drying, the plates were infested with L2 larvae (6 to 10 per well). The samples were assessed for mortality and growth inhibition in comparison to untreated samples 4 days after infestation.

[3] = system: Plutella xylostella (Diamond Back Moth); test: Plutella xylostella (diamond back moth), treated artificial diet; conditions: 120 h, application rate of 200 ppm, L2 larvae on artificial diet, 5 days after infestation, read-out: effect in at least one of the two categories (mortality or growth inhibition)
Protocol: Example B6: Plutella xylostella (Diamond Back Moth)
24-well microtiter plates with artificial diet were treated with aqueous test solutions prepared from 10′000 ppm DMSO stock solutions by pipetting. After drying, the plates were infested with L2 larvae (10 to 15 per well). The samples were assessed for mortality and growth inhibition in comparison to untreated samples 5 days after infestation.
The following compounds gave an effect of at least 80% in at least one of the two categories (mortality or growth inhibition) at an application rate of 200 ppm: […]

[4] = system: Myzus persicae (Green Peach Aphid); test: Myzus persicae (green peach aphid), sprayed sunflower leaf discs; conditions: foliar, 144 h, application rate of 200 ppm, mixed ages on sunflower leaf discs, 6 days after infestation
Protocol: Example B4: Myzus persicae (Green Peach Aphid)
Sunflower leaf discs were placed on agar in a 24-well microtiter plate and sprayed with aqueous test solutions prepared from 10′000 ppm DMSO stock solutions. After drying, the leaf discs were infested with an aphid population of mixed ages. The samples were assessed for mortality 6 days after infestation.

[5] = system: Euschistus heros (Neotropical Brown Stink Bug); test: Euschistus heros (neotropical brown stink bug), sprayed soybean leaf; conditions: 120 h, application rate of 200 ppm, N-2 nymphs on soybean leaf, 5 days after infestation
Protocol: Example B3: Euschistus heros (Neotropical Brown Stink Bug)
Soybean leaf on agar in 24-well microtiter plates were sprayed with aqueous test solutions prepared from 10′000 ppm DMSO stock solutions. After drying the leaf were infested with N-2 nymphs. The samples were assessed for mortality in comparison to untreated samples 5 days after infestation.

CCS(=O)(=O)c1cc(-n2ncc3cnc(C(F)(F)F)cc32)cnc1-c1nc2cc(C(F)(F)F)ncc2n1C [Compound P29]
≥ 80%: percent control (mortality, anti-feedant effect or growth inhibition) at 200 ppm [1] | mortality at 200 ppm [2] | percent effect (mortality or growth inhibition) at 200 ppm [3]

CCS(=O)(=O)c1cc(-c2sccc2C)cnc1-c1nc2cc(C(F)(F)F)ncc2n1C [Compound P48]
≥ 80%: percent control (mortality, anti-feedant effect or growth inhibition) at 200 ppm [1] | mortality at 200 ppm [2] | percent effect (mortality or growth inhibition) at 200 ppm [3]

CCS(=O)(=O)c1cc(-n2ccc(C#N)n2)cnc1-c1nc2cc(C(F)(F)F)ncc2n1C [Compound P98]
≥ 80%: percent control (mortality, anti-feedant effect or growth inhibition) at 200 ppm [1] | mortality at 200 ppm [4] | mortality at 200 ppm [2] | mortality at 200 ppm [5] | percent effect (mortality or growth inhibition) at 200 ppm [3]

CCS(=O)(=O)c1cc(-c2ccc(OC)nc2)cnc1-c1nc2cc(C(F)(F)F)ncc2n1C [Compound P1, 2-[3-ethylsulfonyl-5-(6-methoxy-3-pyridyl)-2-pyridyl]-3-methyl-6-(trifluoromethyl)imidazo[4,5-c]pyridine]
≥ 80%: percent control (mortality, anti-feedant effect or growth inhibition) at 200 ppm [1] | mortality at 200 ppm [4] | mortality at 200 ppm [2] | percent effect (mortality or growth inhibition) at 200 ppm [3]

CCS(=O)(=O)c1cc(-c2nc(C)cc(C3CC3)n2)cnc1-c1nc2cc(C(F)(F)F)ncc2n1C [Compound P23, 2-[5-(4-cyclopropyl-6-methyl-pyrimidin-2-yl)-3-ethylsulfonyl-2-pyridyl]-3-methyl-6-(trifluoromethyl)imidazo[4,5-c]pyridine]
≥ 80%: percent control (mortality, anti-feedant effect or growth inhibition) at 200 ppm [1] | mortality at 200 ppm [4] | mortality at 200 ppm [2] | mortality at 200 ppm [5] | percent effect (mortality or growth inhibition) at 200 ppm [3]

CCS(=O)(=O)c1cc(-c2ccnc(C#N)n2)cnc1-c1nc2cc(C(F)(F)F)ncc2n1C [Compound P107]
≥ 80%: percent control (mortality, anti-feedant effect or growth inhibition) at 200 ppm [1] | mortality at 200 ppm [2] | percent effect (mortality or growth inhibition) at 200 ppm [3]

CCS(=O)(=O)c1cc(-n2ncc3ccccc32)cnc1-c1nc2cc(C(F)(F)F)ncc2n1C [Compound P24]
≥ 80%: percent control (mortality, anti-feedant effect or growth inhibition) at 200 ppm [1] | percent effect (mortality or growth inhibition) at 200 ppm [3]

CCSc1cc(-n2nc(C)cc2C)cnc1-c1nc2cc(C(F)(F)F)ncc2n1C [Compound P13]
≥ 80%: mortality at 200 ppm [2]

CCSc1cc(-n2cc(Cl)cn2)cnc1-c1nc2cc(C(F)(F)F)ncc2n1C [Compound P14, 2-[5-(4-chloropyrazol-1-yl)-3-ethylsulfanyl-2-pyridyl]-3-methyl-6-(trifluoromethyl)imidazo[4,5-c]pyridine]
≥ 80%: percent control (mortality, anti-feedant effect or growth inhibition) at 200 ppm [1] | mortality at 200 ppm [2] | percent effect (mortality or growth inhibition) at 200 ppm [3]

CCS(=O)(=O)c1cc(-c2cnc(O)nc2O)cnc1-c1nc2cc(C(F)(F)F)ncc2n1C [Compound P79]
≥ 80%: percent effect (mortality or growth inhibition) at 200 ppm [3]

CCS(=O)(=O)c1cc(-c2cc(C)oc2C#N)cnc1-c1nc2cc(C(F)(F)F)ncc2n1C [Compound P78]
≥ 80%: mortality at 200 ppm [4] | mortality at 200 ppm [2]

CCS(=O)(=O)c1cc(-n2nc(C(F)(F)F)cc2-c2ccc(F)cc2)cnc1-c1nc2cc(C(F)(F)F)ncc2n1C [Compound P28]
≥ 80%: percent control (mortality, anti-feedant effect or growth inhibition) at 200 ppm [1] | mortality at 200 ppm [2] | percent effect (mortality or growth inhibition) at 200 ppm [3]

CCS(=O)(=O)c1cc(-c2cnc(Cl)c(C)c2)cnc1-c1nc2cc(C(F)(F)F)ncc2n1C [Compound P4]
≥ 80%: percent control (mortality, anti-feedant effect or growth inhibition) at 200 ppm [1] | mortality at 200 ppm [4] | mortality at 200 ppm [5] | percent effect (mortality or growth inhibition) at 200 ppm [3]

CCS(=O)(=O)c1cc(-c2ccncc2C#N)cnc1-c1nc2cc(C(F)(F)F)ncc2n1C [Compound P73]
≥ 80%: mortality at 200 ppm [4] | mortality at 200 ppm [2] | mortality at 200 ppm [5] | percent effect (mortality or growth inhibition) at 200 ppm [3]

CCS(=O)(=O)c1cc(-c2ccc(SC)nc2)cnc1-c1nc2cc(C(F)(F)F)ncc2n1C [Compound P75]
≥ 80%: mortality at 200 ppm [4] | mortality at 200 ppm [2] | mortality at 200 ppm [5] | percent effect (mortality or growth inhibition) at 200 ppm [3]

CCS(=O)(=O)c1cc(-c2ccnc(C#N)c2)cnc1-c1nc2cc(C(F)(F)F)ncc2n1C [Compound P99]
≥ 80%: mortality at 200 ppm [2] | mortality at 200 ppm [5] | percent effect (mortality or growth inhibition) at 200 ppm [3]

CCS(=O)(=O)c1cc(-c2ccc3ccccc3n2)cnc1-c1nc2cc(C(F)(F)F)ncc2n1C [Compound P62]
≥ 80%: mortality at 200 ppm [4] | mortality at 200 ppm [5] | percent effect (mortality or growth inhibition) at 200 ppm [3]

CCS(=O)(=O)c1cc(-c2ncc(N)nc2C)cnc1-c1nc2cc(C(F)(F)F)ncc2n1C [Compound P63]
≥ 80%: percent control (mortality, anti-feedant effect or growth inhibition) at 200 ppm [1] | mortality at 200 ppm [4] | mortality at 200 ppm [5] | percent effect (mortality or growth inhibition) at 200 ppm [3]

CCS(=O)(=O)c1cc(-c2cncc3ccccc23)cnc1-c1nc2cc(C(F)(F)F)ncc2n1C [Compound P7]
≥ 80%: percent control (mortality, anti-feedant effect or growth inhibition) at 200 ppm [1] | mortality at 200 ppm [2] | percent effect (mortality or growth inhibition) at 200 ppm [3]

CCS(=O)(=O)c1cc(-c2ccc3[nH]c(=O)[nH]c3c2)cnc1-c1nc2cc(C(F)(F)F)ncc2n1C [Compound P76]
≥ 80%: mortality at 200 ppm [2]

CCS(=O)(=O)c1cc(-c2cnc3ccccn23)cnc1-c1nc2cc(C(F)(F)F)ncc2n1C [Compound P51]
≥ 80%: percent control (mortality, anti-feedant effect or growth inhibition) at 200 ppm [1] | mortality at 200 ppm [4] | mortality at 200 ppm [5] | percent effect (mortality or growth inhibition) at 200 ppm [3]

CCS(=O)(=O)c1cc(-c2ncc(OC)cn2)cnc1-c1nc2cc(C(F)(F)F)ncc2n1C [Compound P97]
≥ 80%: percent control (mortality, anti-feedant effect or growth inhibition) at 200 ppm [1] | mortality at 200 ppm [4] | mortality at 200 ppm [5] | percent effect (mortality or growth inhibition) at 200 ppm [3]

CCS(=O)(=O)c1cc(-c2cnc3nc(C(F)(F)F)cnn23)cnc1-c1nc2cc(C(F)(F)F)ncc2n1C [Compound P38]
≥ 80%: percent control (mortality, anti-feedant effect or growth inhibition) at 200 ppm [1] | mortality at 200 ppm [2] | mortality at 200 ppm [5] | percent effect (mortality or growth inhibition) at 200 ppm [3]

CCS(=O)(=O)c1cc(-c2ccc3nccn3c2C)cnc1-c1nc2cc(C(F)(F)F)ncc2n1C [Compound P42]
≥ 80%: mortality at 200 ppm [4] | mortality at 200 ppm [5]

CCS(=O)(=O)c1cc(-c2ccc(C)s2)cnc1-c1nc2cc(C(F)(F)F)ncc2n1C [Compound P69]
≥ 80%: percent control (mortality, anti-feedant effect or growth inhibition) at 200 ppm [1] | mortality at 200 ppm [4] | mortality at 200 ppm [5] | percent effect (mortality or growth inhibition) at 200 ppm [3]

CCS(=O)(=O)c1cc(-c2ccsc2C)cnc1-c1nc2cc(C(F)(F)F)ncc2n1C [Compound P68]
≥ 80%: percent control (mortality, anti-feedant effect or growth inhibition) at 200 ppm [1] | mortality at 200 ppm [5]

CCS(=O)(=O)c1cc(-c2c(C(F)(F)F)n[nH]c2C)cnc1-c1nc2cc(C(F)(F)F)ncc2n1C [Compound P30]
≥ 80%: mortality at 200 ppm [4] | mortality at 200 ppm [2] | mortality at 200 ppm [5]
